Source: PMC10940605, “Design, synthesis and in vitro anticancer activity of some new lomefloxacin derivatives” (Scientific Reports, 2024)

Experiments:
OVCAR-3 = assay: NCI-60 SRB screen; assay type: cell-based; conditions: Homo sapiens; OVCAR-3, 10^–5 Molar; read-out: Percent growth inhibition
[1] = system: 60 human cancer cell lines; assay: NCI-60 SRB screen, whole panel; assay type: cell-based; conditions: for activity at 10 µM / LC50 / GI50 / inhibition at 10 µM: Homo sapiens; for activity at 10 µM: 48 h, One Dose Mean Graph, Conc 1.00E-5 Molar, read-out: Mean Growth Percent; for LC50 / Log10 TGI _MID: mean over panel, Units Molar; for LC50: read-out: Log10 LC50 _MID (converted); for GI50: mean over the cell line panel (_MID), Molar, read-out: Mean Log10 GI50 (converted); for inhibition at 10 µM: single dose 10^–5 M, 60 cell lines, read-out: mean percent growth inhibition
MOLT-4 = assay: NCI-60 SRB screen; assay type: cell-based; conditions: Homo sapiens; MOLT-4, 10^–5 Molar; read-out: Percent growth inhibition
PC-3 = assay: NCI-60 SRB screen; assay type: cell-based; conditions: Homo sapiens; PC-3, 10^–5 Molar; read-out: Percent growth inhibition
In short: (§1)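 Percent growth inhibition at 10^−5 M, 48 h. Sulforhodamine B read-out at […] following cold TCA fixation; Tz plates fixed when compound was added.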

HOP-62 = assay: NCI-60 SRB screen; assay type: cell-based; conditions: Homo sapiens; HOP-62, 10^–5 Molar; read-out: Percent growth inhibition
In short: (§2)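 After a 24 h pre-incubation, the cells received test compound at a single 10^−5 M dose and were incubated a further 48 h. Endpoint was SRB dye binding.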

leukemia SR = assay: NCI-60 SRB screen; assay type: cell-based; conditions: Homo sapiens; for inhibition at 10 µM: SR, 10^–5 Molar, read-out: Percent growth inhibition
In short: as §2

SNB-75 = assay: NCI-60 SRB screen; assay type: cell-based; conditions: Homo sapiens; SNB-75, 10^–5 Molar; read-out: Percent growth inhibition
In short: as §2

SF-295 = assay: NCI-60 SRB screen; assay type: cell-based; conditions: Homo sapiens; SF-295, 10^–5 Molar; read-out: Percent growth inhibition
In short: as §1

ACHN = assay: NCI-60 SRB screen; assay type: cell-based; conditions: Homo sapiens, 10^–5 Molar, read-out: Percent growth inhibition
In short: as §1

MCF7 = assay: NCI-60 SRB screen; assay type: cell-based; conditions: Homo sapiens; MCF7, 10^–5 Molar; read-out: Percent growth inhibition
In short: as §2

MDA-MB-468 = assay: NCI-60 SRB screen; assay type: cell-based; conditions: Homo sapiens; MDA-MB-468, 10^–5 Molar; read-out: Percent growth inhibition
In short: as §2

M14 = assay: NCI-60 SRB screen; assay type: cell-based; conditions: Homo sapiens; M14, 10^–5 Molar; read-out: Percent growth inhibition
In short: as §2

SF-268 = assay: NCI-60 SRB screen; assay type: cell-based; conditions: Homo sapiens; SF-268, 10^–5 Molar; read-out: Percent growth inhibition
In short: as §1

HS 578T = assay: NCI-60 SRB screen; assay type: cell-based; conditions: Homo sapiens, 10^–5 Molar, read-out: Percent growth inhibition
In short: as §2

OVCAR-8 = assay: NCI-60 SRB screen; assay type: cell-based; conditions: Homo sapiens; OVCAR-8, 10^–5 Molar; read-out: Percent growth inhibition
In short: as §2

A549/ATCC = assay: NCI-60 SRB screen; assay type: cell-based; conditions: Homo sapiens, 10^–5 Molar, read-out: Percent growth inhibition
In short: as §2

UACC-62 = assay: NCI-60 SRB screen; assay type: cell-based; conditions: Homo sapiens; UACC-62, 10^–5 Molar; read-out: Percent growth inhibition
In short: as §1

UO-31 = assay: NCI-60 SRB screen; assay type: cell-based; conditions: Homo sapiens; UO-31, 10^–5 Molar; read-out: Percent growth inhibition
In short: as §2

IGROV1 = assay: NCI-60 SRB screen; assay type: cell-based; conditions: Homo sapiens, IGROV-1; IGROV1, 10^–5 Molar; read-out: Percent growth inhibition
In short: as §2

786-0 = assay: NCI-60 SRB screen; assay type: cell-based; conditions: Homo sapiens; 786-0, 10^–5 Molar; read-out: Percent growth inhibition
In short: as §1

SNB-19 = assay: NCI-60 SRB screen; assay type: cell-based; conditions: Homo sapiens; SNB-19, 10^–5 Molar; read-out: Percent growth inhibition
In short: as §1

NCI-H460 = assay: NCI-60 SRB screen; assay type: cell-based; conditions: Homo sapiens; NCI-H460, 10^–5 Molar; read-out: Percent growth inhibition
In short: as §2

EKVX = assay: NCI-60 SRB screen; assay type: cell-based; conditions: Homo sapiens, 10^–5 Molar, read-out: Percent growth inhibition
In short: as §2

SMILES | inhibition at 10 µM (OVCAR-3) [%] | activity at 10 µM [1] [%] | inhibition at 10 µM (MOLT-4) [%] | inhibition at 10 µM (PC-3) [%] | inhibition at 10 µM (HOP-62) [%] | inhibition at 10 µM (leukemia SR) [%] | inhibition at 10 µM (SNB-75) [%] | inhibition at 10 µM (SF-295) [%] | inhibition at 10 µM (ACHN) [%] | inhibition at 10 µM (MCF7) [%] | inhibition at 10 µM (MDA-MB-468) [%] | inhibition at 10 µM (M14) [%] | inhibition at 10 µM (SF-268) [%] | inhibition at 10 µM (HS 578T) [%] | inhibition at 10 µM (OVCAR-8) [%] | inhibition at 10 µM (A549/ATCC) [%] | inhibition at 10 µM (UO-31) [%] | inhibition at 10 µM (IGROV1) [%] | inhibition at 10 µM (786-0) [%] | inhibition at 10 µM (SNB-19) [%] | further results
CCn1cc(C(=O)NN=Cc2cccs2)c(=O)c2cc(F)c(N3CCNC(C)C3)c(F)c21 (stereo not drawn) [Compound 3e, 1-Ethyl-6,8-difluoro-7-(3-methylpiperazin-1-yl)-4-oxo-N'-(thiophen-2-ylmethylene)-1,4-dihydroquinoline-3-carbohydrazide] | 31.3 | 52.6 | 24.9 | 23.7 | 27.6 | 104 | 11.5 | 14.7 | 12.8 | 177 | 44.9 | 50.6 | 20.9 | 13.9 | 56.2 | 56 | 33.2 | 33 | 32.2 | 27.1 | LC50 [1]: 7.24 µM; GI50 [1]: 1.82 µM; inhibition at 10 µM [1]: > 47%; Log10 TGI _MID [1]: -5.44; IC50 (leukemia SR; Leukemia SR cells, concentration used for cell cycle and apoptosis tests): 1.9 µM; inhibition at 10 µM (UACC-62): 3.47%; inhibition at 10 µM (NCI-H460): 76.4%; inhibition at 10 µM (EKVX): 65.9%
CCn1cc(C(=O)NN=Cc2ccc(Br)cc2)c(=O)c2cc(F)c(N3CCNC(C)C3)c(F)c21 (stereo not drawn) [Compound 3c, N'-(4-Bromobenzylidene)-1-ethyl-6,8-difluoro-7-(3-methylpiperazin-1-yl)-4-oxo-1,4-dihydroquinoline-3-carbohydrazide] | 47.1 | 51.9 | 78 | 31.6 | 11.2 | 95.7 | 14.4 | 25.5 | 11.2 | 177 | 17.5 | 57.3 | 37.4 | 26.9 | 42.2 | 54.7 | 31.6 | 28.7 | 36.1 | 45.5 | LC50 [1]: 7.24 µM; GI50 [1]: 1.74 µM; inhibition at 10 µM [1]: > 47%; Log10 TGI _MID [1]: -5.46; inhibition at 10 µM (NCI-H460): 151%; inhibition at 10 µM (EKVX): 13.1%
CCn1cc(C(=O)NN=Cc2ccccc2)c(=O)c2cc(F)c(N3CCNC(C)C3)c(F)c21 (stereo not drawn) [Compound 3a, N'-Benzylidene-1-ethyl-6,8-difluoro-7-(3-methylpiperazin-1-yl)-4-oxo-1,4-dihydroquinoline-3-carbohydrazide] | 175 | -2.19 | 125 | 51.1 | 31.4 | 115 | 7.18 | 91.1 | 43.2 | 184 | 69.6 | 150 | 61.1 | 30.3 | 71.6 | 184 | 52.5 | 42 | 167 | 81.1 | LC50 [1]: 5.89 µM; GI50 [1]: 1.7 µM; inhibition at 10 µM [1]: > 47%; Log10 TGI _MID [1]: -5.49; inhibition at 10 µM (UACC-62): 128%; inhibition at 10 µM (NCI-H460): 173%; inhibition at 10 µM (EKVX): 65.7%
CCn1cc(C(=O)NN=Cc2cccc(F)c2)c(=O)c2cc(F)c(N3CCNC(C)C3)c(F)c21 (stereo not drawn) [Compound 3b, 1-Ethyl-6,8-difluoro-N′-(3-fluorobenzylidene)-7-(3-methylpiperazin-1-yl)-4-oxo-1,4-dihydroquinoline-3-carbohydrazide] | 183 | 11.2 | 126 | 30.4 | 13.5 | 129 | 9.9 | 24.3 | 25.6 | 184 | 28.4 | 107 | 60.6 | 18.7 | 105 | 167 | 79.4 | 30.6 | 140 | 159 | LC50 [1]: 6.61 µM; GI50 [1]: 1.7 µM; inhibition at 10 µM [1]: > 47%; Log10 TGI _MID [1]: -5.47; inhibition at 10 µM (UACC-62): 35.2%; inhibition at 10 µM (NCI-H460): 179%; inhibition at 10 µM (EKVX): 49.2%
CCn1cc(C(=O)NN=Cc2cccnc2)c(=O)c2cc(F)c(N3CCNC(C)C3)c(F)c21 (stereo not drawn) [Compound 3d, 1-Ethyl-6,8-difluoro-7-(3-methylpiperazin-1-yl)-4-oxo-N'-(pyridin-3-ylmethylene)-1,4-dihydroquinoline-3-carbohydrazide] | 59.8 | 53.2 | 65.6 | 49.1 | 40.6 | 66.4 | 41.1 | 15.1 | 13.6 | 80.9 | 69.3 | 10.3 | 63 | 57.8 | 70 | 14.4 | 12.5 | 71.7 | 54.1 | 69.5 | melting point: 241 to 243 °C; inhibition at 10 µM (UACC-62): 48.6%; inhibition at 10 µM (NCI-H460): 63%; inhibition at 10 µM (EKVX): 37.2%
